Experimental data reported in ChEMBL document CHEMBL4813997, “Discovery of 3-aryl substituted benzoxaboroles as broad-spectrum inhibitors of serine- and metallo-β-lactamases” (Bioorg Med Chem Lett, 2021).
Values after ≈ are worked out from the molar mass of the structure shown.

Assays:
Escherichia coli [1] = assay: Antibacterial activity against KPC-2 producing Escherichia coli 11119; format: functional
Escherichia coli [2] = assay: Antibacterial activity against Escherichia coli ATCC 25922; format: functional
Klebsiella pneumoniae [3] = assay: Antibacterial activity against AmpC/TEM-1 producing Klebsiella pneumoniae C692; format: functional
Escherichia coli [4] = assay: Antibacterial activity against KPC-2 producing Escherichia coli BAA2340; format: functional
[5] = Inhibition of bacterial Beta-lactamase SFH-1 (3 - 234) expressed in Escherichia coli Transetta (DE3); set-up: species or system Bacteria
[6] = Inhibition of bacterial Beta-lactamase AmpC (20 - 377) (unknown origin) expressed in Escherichia coli Transetta (DE3); set-up: species or system Bacteria
[7] = Inhibition of bacterial Beta-lactamase VIM-1 (27 - 266) (unknown origin) expressed in Escherichia coli Transetta (DE3); set-up: species or system Bacteria
Escherichia coli [8] = assay: Potentiation of meropenem-induced antibacterial activity against KPC-2 producing Escherichia coli BAA2340 assessed as MIC of meropenem at 10 uM; format: functional
[9] = Inhibition of bacterial Beta-lactamase KPC-2 (29 - 289) (unknown origin) expressed in Escherichia coli Transetta (DE3); set-up: species or system Bacteria
[10] = Inhibition of bacterial New Delhi metallo-beta-lactamase 1 (1- 270) (unknown origin) expressed in Escherichia coli Transetta (DE3); set-up: species or system Bacteria
Klebsiella pneumoniae [11] = assay: Potentiation of meropenem-induced antibacterial activity against AmpC/TEM-1 producing Klebsiella pneumoniae C692 assessed as MIC of meropenem at 10 uM; format: functional
Klebsiella pneumoniae [12] = assay: Potentiation of meropenem-induced antibacterial activity against AmpC/TEM-1 producing Klebsiella pneumoniae C692 assessed as MIC of meropenem at 100 uM; format: functional
Beta-lactamase TEM = Beta-lactamase TEM (Bacteria, UniProt P62593); assay: Inhibition of bacterial Beta-lactamase TEM-1 (24 - 286) (unknown origin) expressed in Escherichia coli Transetta (DE3)
Chain of Beta-lactamase TEM (P62593 whole entry): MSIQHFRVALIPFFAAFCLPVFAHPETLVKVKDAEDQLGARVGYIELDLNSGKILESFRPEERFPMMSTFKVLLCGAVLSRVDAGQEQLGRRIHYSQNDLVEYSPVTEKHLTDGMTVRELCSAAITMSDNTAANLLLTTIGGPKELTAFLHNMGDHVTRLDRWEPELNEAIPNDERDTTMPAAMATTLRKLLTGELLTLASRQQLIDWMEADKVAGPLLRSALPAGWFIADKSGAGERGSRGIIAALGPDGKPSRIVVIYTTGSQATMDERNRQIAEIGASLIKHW

[13] = Inhibition of bacterial Beta-lactamase OXA-48 (1 - 265) (unknown origin) expressed in Escherichia coli Transetta (DE3); set-up: species or system Bacteria
Escherichia coli [14] = assay: Potentiation of meropenem-induced antibacterial activity against KPC-2 producing Escherichia coli 11119 assessed as MIC of meropenem at 100 uM; format: functional
HEK-293T = assay: Cytotoxicity against human HEK293T cells assessed as reduction in cell viability at 10 to 100 uM; format: cell-based; settings: dose 10-100 µM
Escherichia coli [15] = assay: Potentiation of meropenem-induced antibacterial activity against KPC-2 producing Escherichia coli 11119 assessed as MIC of meropenem at 10 uM; format: functional
Escherichia coli [16] = assay: Potentiation of meropenem-induced antibacterial activity against KPC-2 producing Escherichia coli BAA2340 assessed as MIC of meropenem at 100 uM; format: functional
Beta-lactamase = Beta-lactamase (Klebsiella pneumoniae, UniProt Q93LQ9); assay: Inhibition of Klebsiella pneumoniae KPC-2
Chain of Beta-lactamase (Q93LQ9 whole entry): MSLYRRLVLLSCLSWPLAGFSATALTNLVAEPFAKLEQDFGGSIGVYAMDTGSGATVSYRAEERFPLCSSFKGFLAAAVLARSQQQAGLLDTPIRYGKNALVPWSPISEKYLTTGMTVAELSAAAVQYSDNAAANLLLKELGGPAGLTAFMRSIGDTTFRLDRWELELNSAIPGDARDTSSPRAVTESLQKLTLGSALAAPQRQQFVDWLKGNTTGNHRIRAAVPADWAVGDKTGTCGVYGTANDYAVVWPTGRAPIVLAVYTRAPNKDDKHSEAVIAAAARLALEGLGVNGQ

Work on `C[C@@H](O)[C@H]1C(=O)N2C(C(=O)O)=C(S[C@@H]3CN[C@H](C(=O)N(C)C)C3)[C@H](C)[C@H]12` [MEROPENEM] yielded an MIC (Escherichia coli [1]) of 64 µg/mL (≈ 167 µM), an MIC (Escherichia coli [2]) of 0.06 µg/mL (≈ 0.156 µM) and an MIC (Klebsiella pneumoniae [3]) greater than 128 µg/mL. It also gave an MIC (Escherichia coli [4]) of 16 µg/mL (≈ 41.7 µM).

In the case of `CN(C)c1ccc(C2OB(O)c3ccc(Cl)cc32)cc1` (stereo unspecified), the IC50 [5] is reported as 3.81 µM, the IC50 [6] is reported as 22.7 µM and the IC50 [7] is reported as greater than 100 µM. The MIC (Escherichia coli [8]) was 2 µg/mL, the IC50 [9] was 86 nM and the IC50 [10] was 9.05 µM. For the same molecule, the MIC (Klebsiella pneumoniae [11]) was greater than 128 µg/mL, the MIC (Klebsiella pneumoniae [12]) was greater than 128 µg/mL and the IC50 (Beta-lactamase TEM) was 1.54 µM. For the same molecule, the IC50 [13] was 2.34 µM, the MIC (Escherichia coli [14]) was 8 µg/mL and the Activity (HEK-293T) was “Non-Toxic”. It also gave an MIC (Escherichia coli [15]) of 32 µg/mL and an MIC (Escherichia coli [16]) of 0.5 µg/mL.

`CN(C)c1ccc(C2OB(O)c3ccc(F)cc32)cc1` (stereo unspecified) gave an IC50 [5] of 3.64 µM, an IC50 [6] of 39.3 µM and an IC50 [7] greater than 100 µM. For the same molecule, the IC50 [9] was 350 nM, the IC50 [10] was 11.2 µM and the IC50 (Beta-lactamase TEM) was 5.68 µM. The IC50 [13] was 3.58 µM.

Work on `OB1OC(c2c[nH]c3ccc(Br)cc23)c2ccc(F)cc21` (stereo unspecified) yielded an IC50 [5] greater than 100 µM, an IC50 [6] greater than 100 µM and an IC50 [7] greater than 100 µM. For the same molecule, the IC50 [9] was greater than 100000 nM, the IC50 [10] was greater than 100 µM and the IC50 (Beta-lactamase TEM) was greater than 100 µM. It also gave an IC50 [13] greater than 100 µM.

`OB1OC(c2c[nH]c3ccc(OCc4ccccc4)cc23)c2ccccc21` (stereo unspecified) showed an IC50 [5] greater than 100 µM, an IC50 [6] greater than 100 µM and an IC50 [7] greater than 100 µM. It also gave an IC50 [9] greater than 100000 nM, an IC50 [10] greater than 100 µM and an IC50 (Beta-lactamase TEM) greater than 100 µM. It also gave an IC50 [13] greater than 100 µM.

Work on `N#Cc1ccc(Oc2ccc3c(c2)COB3O)cc1` [CRISABOROLE] yielded an IC50 (Beta-lactamase) of 670 nM.

Work on `OB1OC(c2c[nH]c3ccccc23)c2c(F)cccc21` (stereo unspecified) yielded an IC50 [5] of 2.17 µM, an IC50 [6] of 10.8 µM and an IC50 [7] of 89.7 µM. For the same molecule, the IC50 [9] was 6560 nM, the IC50 [10] was 25.4 µM and the IC50 (Beta-lactamase TEM) was greater than 100 µM. For the same molecule, the IC50 [13] was greater than 100 µM.

Work on `CN(C)c1ccc(C2OB(O)c3cccc(F)c32)cc1` (stereo unspecified) yielded an IC50 [5] of 1.83 µM, an IC50 [6] of 15.1 µM and an IC50 [7] greater than 100 µM. For the same molecule, the IC50 [9] was 1910 nM, the IC50 [10] was 25.6 µM and the IC50 (Beta-lactamase TEM) was 20.7 µM. It also gave an IC50 [13] of 7.48 µM.

`CNc1ccc(C2OB(O)c3ccccc32)cc1` (stereo unspecified) showed an IC50 [5] of 3.02 µM, an IC50 [6] of 13.9 µM and an IC50 [7] of 26.4 µM. The IC50 [9] was 100 nM, the IC50 [10] was 57.4 µM and the IC50 (Beta-lactamase TEM) was 3.2 µM. It also gave an IC50 [13] of 2.37 µM.

In the case of `CN(C)c1ccc(C2OB(O)c3cc(Cl)ccc32)cc1` (stereo unspecified), the IC50 [5] is reported as 0.47 µM, the IC50 [6] is reported as 3.6 µM and the IC50 [7] is reported as greater than 100 µM. For the same molecule, the IC50 [9] was 810 nM, the IC50 [10] was 61.7 µM and the IC50 (Beta-lactamase TEM) was 4.34 µM. For the same molecule, the IC50 [13] was 1.96 µM.

`CNc1ccc(C2OB(O)c3cccc(F)c32)cc1` (stereo unspecified) gave an IC50 [5] of 1.15 µM, an IC50 [6] of 15.3 µM and an IC50 [7] greater than 100 µM. The IC50 [9] was 2410 nM, the IC50 [10] was 51.4 µM and the IC50 (Beta-lactamase TEM) was 37.9 µM. For the same molecule, the IC50 [13] was 6.49 µM.

With `OB1OC(c2ccccc2)c2ccccc21` (stereo unspecified) the IC50 [5] was 3.56 µM, the IC50 [6] was 29.2 µM and the IC50 [7] was 73.8 µM. It also gave an IC50 [9] of 1000 nM, an IC50 [10] of 89 µM and an IC50 (Beta-lactamase TEM) of 4.46 µM. For the same molecule, the IC50 [13] was 8.67 µM.

`OB1OC(c2c[nH]c3ccccc23)c2ccccc21` (stereo unspecified) showed an IC50 [5] of 8.5 µM, an IC50 [6] of 3.66 µM and an IC50 [7] of 15.2 µM. It also gave an IC50 [9] of 2580 nM, an IC50 [10] of 6.04 µM and an IC50 (Beta-lactamase TEM) greater than 100 µM. For the same molecule, the IC50 [13] was greater than 100 µM.

Work on `OB1OC(c2c[nH]c3ccc(Cl)cc23)c2ccccc21` (stereo unspecified) yielded an IC50 [5] of 18.6 µM, an IC50 [6] of 5.66 µM and an IC50 [9] of 200 nM. For the same molecule, the IC50 [10] was greater than 100 µM, the IC50 (Beta-lactamase TEM) was greater than 100 µM and the IC50 [13] was greater than 100 µM.

In the case of `OB1OC(c2cccs2)c2ccccc21` (stereo unspecified), the IC50 [5] is reported as 2.47 µM, the IC50 [6] is reported as 18.7 µM and the IC50 [7] is reported as 17.4 µM. For the same molecule, the MIC (Escherichia coli [8]) was 2 µg/mL, the IC50 [9] was 410 nM and the IC50 [10] was 22.4 µM. It also gave an MIC (Klebsiella pneumoniae [11]) greater than 128 µg/mL, an MIC (Klebsiella pneumoniae [12]) greater than 128 µg/mL and an IC50 (Beta-lactamase TEM) of 6.97 µM. The IC50 [13] was 5.45 µM, the MIC (Escherichia coli [14]) was 2 µg/mL and the Activity (HEK-293T) was “Non-Toxic”. The MIC (Escherichia coli [15]) was 32 µg/mL and the MIC (Escherichia coli [16]) was 0.5 µg/mL.

With `NC(=O)[C@@H]1CC[C@@H]2CN1C(=O)N2OS(=O)(=O)O` [AVIBACTAM] the IC50 [5] was 0.025 µM, the IC50 [6] was 0.024 µM and the IC50 [7] was greater than 100 µM. The IC50 [9] was 3.7 nM, the IC50 [10] was greater than 100 µM and the IC50 [13] was 0.17 µM.

In the case of `OB1OC(c2ccc(N3CCCCC3)cc2)c2ccccc21` (stereo unspecified), the IC50 [5] is reported as 5.27 µM, the IC50 [6] is reported as 32.2 µM and the IC50 [7] is reported as 18.4 µM. It also gave an IC50 [9] of 510 nM, an IC50 [10] of 11.7 µM and an IC50 (Beta-lactamase TEM) of 33 µM. For the same molecule, the IC50 [13] was 3.44 µM.

`OB1OC(c2c[nH]c3ccc(Br)cc23)c2ccccc21` (stereo unspecified) showed an IC50 [5] of 14.9 µM, an IC50 [6] of 25.9 µM and an IC50 [7] of 13.1 µM. For the same molecule, the IC50 [9] was 9430 nM, the IC50 [10] was 24 µM and the IC50 (Beta-lactamase TEM) was greater than 100 µM. For the same molecule, the IC50 [13] was greater than 100 µM.

Work on `OB1OC(c2cn(Cc3ccccc3)c3ccccc23)c2ccccc21` (stereo unspecified) yielded an IC50 [5] of 9.6 µM, an IC50 [6] greater than 100 µM and an IC50 [7] of 10.6 µM. For the same molecule, the IC50 [9] was greater than 100000 nM, the IC50 [10] was 15.9 µM and the IC50 (Beta-lactamase TEM) was greater than 100 µM. The IC50 [13] was greater than 100 µM.

In the case of `CN(C)c1ccc(C2OB(O)c3ccccc32)cc1` (stereo unspecified), the IC50 [5] is reported as 2.52 µM, the IC50 [6] is reported as 8.27 µM and the IC50 [7] is reported as 39.4 µM. It also gave an IC50 [9] of 180 nM, an IC50 [10] of 8.44 µM and an IC50 (Beta-lactamase TEM) of 0.73 µM. For the same molecule, the IC50 [13] was 2.41 µM.

For `COc1ccc2c(c1)C(c1ccc(N(C)C)cc1)OB2O` (stereo unspecified), the IC50 [5] was 4.23 µM, the IC50 [6] was 11.4 µM and the IC50 [7] was greater than 100 µM. The IC50 [9] was 180 nM, the IC50 [10] was 38.4 µM and the IC50 (Beta-lactamase TEM) was 1.54 µM. The IC50 [13] was 2.93 µM.

`CN(C)c1ccc(C2OB(O)c3cc4c(cc32)OCO4)cc1` (stereo unspecified) gave an IC50 [5] of 2.77 µM, an IC50 [6] of 5.23 µM and an IC50 [7] of 51 µM. For the same molecule, the IC50 [9] was 760 nM, the IC50 [10] was 16.6 µM and the IC50 (Beta-lactamase TEM) was 1.15 µM. The IC50 [13] was 6.4 µM.

With `Cc1ccc2[nH]cc(C3OB(O)c4ccccc43)c2c1` (stereo unspecified) the IC50 [5] was 19.4 µM, the IC50 [6] was 8.52 µM and the IC50 [7] was 16.2 µM. It also gave an IC50 [9] of 220 nM, an IC50 [10] of 68 µM and an IC50 (Beta-lactamase TEM) greater than 100 µM. The IC50 [13] was greater than 100 µM.

Work on `OB1OC(c2c[nH]c3ccc(F)cc23)c2ccccc21` (stereo unspecified) yielded an IC50 [5] of 6.58 µM, an IC50 [6] of 7.27 µM and an IC50 [7] of 62.5 µM. For the same molecule, the IC50 [9] was 360 nM, the IC50 [10] was greater than 100 µM and the IC50 (Beta-lactamase TEM) was 88.8 µM. For the same molecule, the IC50 [13] was greater than 100 µM.
